Measured values from US20260015339A1, “CALIX[4]ARENES WITH HIGH ANTICANCER ACTIVITY” (UNIVERSITE GRENOBLE ALPES, priority 2023, published 2026).

What was measured:
[1] = Cu^+ transport into liposomes with encapsulated BCS; details: POPC/cholesterol 7:3 LUVs, calix[4]arene to lipid 1:1000, 50 μM copper gradient, F/F0 after 600 s
Experimental: The ability of the examples of calix[4]arenes of the invention and the comparative examples to be delivered into a lipidic bilayer membrane of a liposome from a solution and their capacity to then act as a transporter of Cu^+ was evaluated using bathocuproine disulphonate (hereafter abbreviated “BCS”) encapsulated in large unilamellar vesicles (LUVs, also referred to as liposomes) composed of 1-palmitoyl-2-oleoyl-sn-glycero-3-phosphocholine and cholesterol in a 7:3 ratio.
BCS is a fluorescent water soluble phenantroline derivative that can be used as fluorescent dye for the sensing of Cu^+ through the formation of a non-fluorescent 2:1 complex.
Stock solution of lipids were prepared using deacidified CHCl3 and stored in a freezer. CHCl3 was deacidified by passing through activated basic alumina. The lipids used to prepare the liposomes were 2-oleoyl-1-palmitoyl-sn-glycero-3-phosphocholine (POPC), (purity ≥99%) and cholesterol (purity of 95%). 50 mM sodium phosphate buffer were prepared with Millipore water at pH 7 (±0.1) by mixing the solution of the mono- and the di-protonated phosphate salts. The solution of the dye (BCS) was prepared at 0.5 mM concentration in phosphate buffer.
The lipids solutions were mixed in different ratios in a 5 mL round bottom flask. The POPC/cholesterol molar ratio was 7:3 in all experiments. The total amount of lipids per batch varied depending on the amount of liposomes solution required for the experiment. After mixing the lipid solutions in a round bottom flask, the chloroform was evaporated under a gentle air flow and the resulting lipid film was dried at high vacuum for at least an hour. 500 μL of the BCS solution in phosphate buffer and a magnetic stir bar were added to the flask. The flask was then sonicated for 30 seconds and placed under magnetic agitation for at least an hour. The solution was frozen with liquid nitrogen and heated back to room temperature with warm water ten times to form large unilamellar vesicles (LUVs). The liposome solution was extruded 29 times, using an extrusion kit equipped with a membrane with 200 nm pores. Subsequently, the solution was eluted with the buffer solution used for the experiment through a size exclusion column (Sephadex G-25) to remove the external BCS and then diluted with phosphate buffer to obtain a concentration of 0.4 mM in lipids.
Solutions of the calix[4]arenes were prepared at a concentration of 0.24 mM in DMSO and 5 μL of the solution was added 2 minutes before each transport measurement.
Alternatively, calix[4]arenes were pre-incorporated by combining the calix[4]arene (dissolved in chloroform) with the lipids prior to the evaporation of the chloroform to obtain a lipid film. The concentrations and volumes were chosen to obtain a calix[4]arene to lipid of 1:1000.
Fluorescence measurements were performed with a Horiba FluoroMax 4 spectrometer using a 4-faced quartz cuvette (10 mm×10 mm). For the Cu^+ transport assay, the excitation was set at 278 nm and emission was recorded at 393 nm. These values correspond to the excitation and emission maxima of BCS encapsulated inside LUVs.
The Cu^+ solutions added to the liposomes were obtained by dissolving Cu(MeCN)4BF4 in MeCN at 15.25 mM concentration. The copper solution was then diluted by a factor 5 in a phosphate buffer during the first 30 seconds of the experiment to reach a copper concentration of 3.05 mM. 50 μL of the diluted copper solution was added to 3 mL of liposomes, resulting in a copper gradient of 50 μM. The fluorescence level was monitored for 600 seconds after the addition of the copper solution.
For each run the initial plateau and the initial vertical drop (due to the binding of the exterior dye with Cu^+ and the dilution, 1-4 seconds after the addition) were removed. Then the signal was normalised by dividing the fluorescence values (F) by the value at t=0 second (F0). […]

[2] = Cu^+ binding by 1H NMR titration; details: 1H NMR titration with Cu(MeCN)4BF4, CD3CN/CDCl3 4/1, 298 K
Experimental: Binding abilities and complexation constants of the examples of calix[4]arenes of the present invention and the comparative examples with Cu^+ were evaluated by ^1H NMR titrations at 298 K using copper(I)tetrakis(acetronitrile)tetrafluoroborate.
For example, for each separate calix[4]arene a stock solution of the tested calix[4]arene was prepared in a CD3CN/CDCl3, 4/1 mixture. Using this stock solution, a Cu(MeCN)4BF4 solution was prepared and added by steps of 0.25 equivalent of copper(I) up until 1 equivalent and then by steps of 0.5 equivalent until a total of at least 2 equivalents. ^1H NMR spectra were recorded at a 400 MHz spectrometer at 298 K for the stock solutions of the calix[4]arenes and after each addition of Cu(MeCN)4BF4.
Calix[4]arenes for which a gradual change of the chemical shifts of the ^1H NMR signals (>0.1 ppm for at least one of the signals) was observed upon addition of up to 4-5 equivalents of Cu(MeCN)4BF4 were considered to show weak binding.

[3] = system: H322 lung carcinoma cells; test: MTS cytotoxicity assay on H322; format: cell-based; details: NCI-H322; H322, 72 hours of treatment
Experimental: H322 lung carcinoma cells were seeded in 96-well plates together with the calix[4]arene of the formula (2). Cells were grown in RPMI-1640 supplemented with GlutaMAX™ (Gibco™) and fetal calf serum (FCS, 10%) and treated with a broad range of concentrations of the calix[4]arene of the formula (2). After 72 hours of treatment, the cytotoxicity was measured by means of the IC50 value, using the kit “CellTiter 96R AQuous One Solution Cell Proliferation Assay (MTS)” from Promega™. Following 30 minutes of incubation with the MTS reagent, the endpoint measurements were done in triplicate at 485 nm, using a fluorescence plate reader.
H322 lung carcinoma cells were seeded in 96-well plates together with the compound of the 2nd comparative example of the formula (XI). Cells were grown in RPMI-1640 supplemented with GlutaMAX™ (Gibco™) and fetal calf serum (FCS, 10%) and treated with a broad range of concentrations of the 2nd comparative example of the formula (XI). After 72 hours of treatment, the cytotoxicity was measured by means of the IC50 value, using the kit “CellTiter 96R AQuous One Solution Cell Proliferation Assay (MTS)” from Promega™. Following 30 minutes of incubation with the MTS reagent, the endpoint measurements were done in triplicate at 485 nm, using a fluorescence plate reader.
H322 lung carcinoma cells were seeded in 96-well plates together with the 1st comparative example of the formula (X). Cells were grown in RPMI-1640 supplemented with GlutaMAX™ (Gibco™) and fetal calf serum (FCS, 10%) and treated with a broad range of concentrations of the compound of the formula (X). After 72 hours of treatment, the cytotoxicity was measured by means of the IC50 value, using the kit “CellTiter 96R AQuous One Solution Cell Proliferation Assay (MTS)” from Promega™. Following 30 minutes of incubation with the MTS reagent, the endpoint measurements were done in triplicate at 485 nm, using a fluorescence plate reader.
H322 lung carcinoma cells were seeded in 96-well plates together with the tested calix[4]arenes. Cells were grown in RPMI-1640 supplemented with GlutaMAX™ (Gibco™) and fetal calf serum (FCS, 10%) and treated with a broad range of concentrations of the tested calix[4]arenes. After 72 hours of treatment, the cytotoxicity was measured by means of the IC50 value, using the kit “CellTiter 96R AQuous One Solution Cell Proliferation Assay (MTS)” from Promega™. Following 30 minutes of incubation with the MTS reagent, the endpoint measurements were done in triplicate at 485 nm, using a fluorescence plate reader.

[4] = system: Hepatocellular carcinoma (HepG2/C3A) cells; test: MTT cytotoxicity assay (DL50); format: cell-based; details: 24 hours of incubation
Experimental: Cytotoxicity was evaluated using the MTT assay. 1.10^4 cells per well were seeded in a flat-bottom 96-well plate and were incubated for 48 hours at 37° C. with 5% CO2 before addition of the different calix[4]arenes at concentrations up to 200 μM. In all experiments, each condition was performed in triplicate in the plate. Besides, each experiment was done three times independently. After 24 hours of incubation in presence of the compounds, medium was discarded, cells were rinsed with PBS and 100 μL of medium containing 0.5 mg/mL of MTT was added to each well. After 30 minutes of incubation at 37° C., MTT solution was discarded and formazan crystals formed were dissolved in 150 μL of 4 mM HCl, 0.1% NP40 in isopropanol. The absorbance in the wells were read in a microplate reader (Tecan microplate reader-550) at 570 nm.

[5] = system: PC9 human lung cancer cells; test: MTS cytotoxicity assay on PC9; format: cell-based; details: PC9, 72 hours of treatment
Experimental: PC9 human lung cancer cells were seeded in 96-well plates together with the calix[4]arene of the formula (2). Cells were grown in RPMI-1640 supplemented with GlutaMAX™ (Gibco™) and fetal calf serum (FCS, 10%) and treated with a broad range of concentrations of the calix[4]arene of the formula (2). After 72 hours of treatment, the cytotoxicity was measured by means of the IC50 value, using the kit “CellTiter 96R AQuous One Solution Cell Proliferation Assay (MTS)” from Promega™. Following 30 minutes of incubation with the MTS reagent, the endpoint measurements were done in triplicate at 485 nm, using a fluorescence plate reader.
PC9 human lung cancer cells were seeded in 96-well plates together with the 2nd comparative example of the formula (XI). Cells were grown in RPMI-1640 supplemented with GlutaMAX™ (Gibco™) and fetal calf serum (FCS, 10%) and treated with a broad range of concentrations of the compound of the 2nd comparative example of the formula (XI). After 72 hours of treatment, the cytotoxicity was measured by means of the IC50 value, using the kit “CellTiter 96R AQuous One Solution Cell Proliferation Assay (MTS)” from Promega™. Following 30 minutes of incubation with the MTS reagent, the endpoint measurements were done in triplicate at 485 nm, using a fluorescence plate reader. […]

[6] = system: A549 human lung cancer cells; test: MTS cytotoxicity assay on A549; format: cell-based; details: A549, 72 hours of treatment
Experimental: A549 human lung cancer cells were seeded in 96-well plates together with the calix[4]arene of the formula (2). Cells were grown in RPMI-1640 supplemented with GlutaMAX™ (Gibco™) and fetal calf serum (FCS, 10%) and treated with a broad range of concentrations of the calix[4]arene of the formula (2). After 72 hours of treatment, the cytotoxicity was measured by means of the IC50 value, using the kit “CellTiter 96R AQuous One Solution Cell Proliferation Assay (MTS)” from Promega™. Following 30 minutes of incubation with the MTS reagent, the endpoint measurements were done in triplicate at 485 nm, using a fluorescence plate reader.
A549 human lung cancer cells were seeded in 96-well plates together with the compound of the 2nd comparative example of the formula (XI). Cells were grown in RPMI-1640 supplemented with GlutaMAX™ (Gibco™) and fetal calf serum (FCS, 10%) and treated with a broad range of concentrations of the 2nd comparative example of the formula (XI). After 72 hours of treatment, the cytotoxicity was measured by means of the IC50 value, using the kit “CellTiter 96R AQuous One Solution Cell Proliferation Assay (MTS)” from Promega™. Following 30 minutes of incubation with the MTS reagent, the endpoint measurements were done in triplicate at 485 nm, using a fluorescence plate reader. […]

[7] = system: Non-malignant MRC5-SVII cells; test: MTS cytotoxicity assay on MRC5-SVII; format: cell-based; details: 72 hours of treatment
Experimental: Cells were grown in Minimal Essential Medium—Non Essential Amino Acids (MEM NEAA) culture medium from Gibco™, supplemented with sodium pyruvate ([…]), and fetal calf serum (FCS, 10%) and treated with a broad range of concentrations of the 2nd comparative example of the formula (XI).

SMILES	Cu^+ transport [1]	Cu^+ binding [2]	IC50 [3] [µM]	IC50 [4] [µM]	IC50 [5] [µM]	IC50 [6] [µM]	IC50 [7] [µM]
Cn1ccnc1COc1c2cccc1Cc1cccc(c1O)Cc1cccc(c1OCc1nccn1C)Cc1cccc(c1O)C2 [(6)]	Yes (means that a significant decrease of the fluorescence of encapsulated BCS was observed upon addition of Cu^+ to the liposomes (F/F0<0.65 after 600 s))	Strong binding (means an affinity constant (Ka) equal or greater than 10^5 M^−1)	> 10	20.7			
CCCOc1c2cc([N+](=O)[O-])cc1Cc1cccc(c1OCc1nccn1C)Cc1cc([N+](=O)[O-])cc(c1OCCC)Cc1cccc(c1OCc1nccn1C)C2 [(7)]	Yes (means that a significant decrease of the fluorescence of encapsulated BCS was observed upon addition of Cu^+ to the liposomes (F/F0<0.65 after 600 s))	Strong binding (means an affinity constant (Ka) equal or greater than 10^5 M^−1)	5	10.9			
CCCOc1c2cccc1Cc1cccc(c1OCCC)Cc1cccc(c1OCCC)Cc1cccc(c1OCCC)C2 [(XI)]	No (means that no significant decrease of the fluorescence of encapsulated BCS was observed upon addition of Cu^+ to the liposomes (F/F0 >0.65 after 600 s) when the calix[4]arene was either delivered from a solution in DMSO to liposomes or pre-incorporated into the liposomes)	Not significant (means that no significant changes of chemical shifts (<0.1 ppm) were observed upon addition of 4-5 equivalents of Cu(MeCN)4BF4)	> 50	184	> 50	> 50	> 20
